{"source": "PubChem BioAssay (NCI)", "test_in_all_cases": "growth of human tumour cells (NCI), 48 h", "key": {"COLO 205 colon": {"test_system": "COLO 205 colon"}, "MALME-3M melanoma": {"test_system": "MALME-3M melanoma"}, "RPMI-8226 leukemia": {"test_system": "RPMI-8226 leukemia"}, "SW-620 colon": {"test_system": "SW-620 colon"}, "OVCAR-5 ovarian": {"test_system": "OVCAR-5 ovarian"}, "UACC-62 melanoma": {"test_system": "UACC-62 melanoma"}, "TK-10 renal": {"test_system": "TK-10 renal"}, "A498 renal": {"test_system": "A498 renal"}, "DU-145 prostate": {"test_system": "DU-145 prostate"}, "SK-MEL-5 melanoma": {"test_system": "SK-MEL-5 melanoma"}, "UACC-257 melanoma": {"test_system": "UACC-257 melanoma"}, "HOP-92 NSCLC": {"test_system": "HOP-92 NSCLC"}, "SN12C renal": {"test_system": "SN12C renal"}, "OVCAR-3 ovarian": {"test_system": "OVCAR-3 ovarian"}, "MDA-MB-231 breast": {"test_system": "MDA-MB-231 breast"}, "UO-31 renal": {"test_system": "UO-31 renal"}, "BT-549 breast": {"test_system": "BT-549 breast"}, "HS 578T breast": {"test_system": "HS 578T breast"}, "HCT-15 colon": {"test_system": "HCT-15 colon"}, "MDA-MB-435": {"test_system": "MDA-MB-435"}, "SK-OV-3 ovarian": {"test_system": "SK-OV-3 ovarian"}, "A549 NSCLC": {"test_system": "A549 NSCLC"}, "SF-295 CNS": {"test_system": "SF-295 CNS"}, "M14 melanoma": {"test_system": "M14 melanoma"}, "SF-268 CNS": {"test_system": "SF-268 CNS"}, "SF-539 CNS": {"test_system": "SF-539 CNS"}, "PC-3 prostate": {"test_system": "PC-3 prostate"}, "CAKI-1 renal": {"test_system": "CAKI-1 renal"}, "HCT-116 colon": {"test_system": "HCT-116 colon"}, "NCI/ADR-RES ovarian": {"test_system": "NCI/ADR-RES ovarian"}, "ACHN renal": {"test_system": "ACHN renal"}, "SK-MEL-2 melanoma": {"test_system": "SK-MEL-2 melanoma"}, "KM12 colon": {"test_system": "KM12 colon"}, "EKVX NSCLC": {"test_system": "EKVX NSCLC"}, "SK-MEL-28 melanoma": {"test_system": "SK-MEL-28 melanoma"}, "SNB-75 CNS": {"test_system": "SNB-75 CNS"}}, "note": "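Protocol summary: plate cells (96-well), add compound at 5 concentrations, incubate 48 h, interpolate endpoints linearly. GI50 = concentration required for 50% inhibition of growth. At the TGI there is no net growth.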"}
{"smiles": "CCCCNCCC(O)c1cc2ccc(C(F)(F)F)cc2c2cc(C(F)(F)F)ccc12", "note": "(stereo not drawn)", "values": [{"measurement": "GI50", "setting": "COLO 205 colon", "value": 339, "unit": "nM"}, {"measurement": "TGI", "setting": "COLO 205 colon", "value": 1070, "unit": "nM"}, {"measurement": "GI50", "setting": "MALME-3M melanoma", "value": 1960, "unit": "nM"}, {"measurement": "TGI", "setting": "MALME-3M melanoma", "value": 3870, "unit": "nM"}, {"measurement": "GI50", "setting": "RPMI-8226 leukemia", "value": 2040, "unit": "nM"}, {"measurement": "TGI", "setting": "RPMI-8226 leukemia", "value": 4630, "unit": "nM"}, {"measurement": "GI50", "setting": "SW-620 colon", "value": 1300, "unit": "nM"}, {"measurement": "TGI", "setting": "SW-620 colon", "value": 2790, "unit": "nM"}, {"measurement": "GI50", "setting": "OVCAR-5 ovarian", "value": 1610, "unit": "nM"}, {"measurement": "TGI", "setting": "OVCAR-5 ovarian", "value": 3130, "unit": "nM"}, {"measurement": "GI50", "setting": "UACC-62 melanoma", "value": 1780, "unit": "nM"}, {"measurement": "TGI", "setting": "UACC-62 melanoma", "value": 3350, "unit": "nM"}, {"measurement": "GI50", "setting": "TK-10 renal", "value": 1880, "unit": "nM"}, {"measurement": "TGI", "setting": "TK-10 renal", "value": 3390, "unit": "nM"}, {"measurement": "GI50", "setting": "A498 renal", "value": 1320, "unit": "nM"}, {"measurement": "TGI", "setting": "A498 renal", "value": 2640, "unit": "nM"}, {"measurement": "GI50", "setting": "DU-145 prostate", "value": 1870, "unit": "nM"}, {"measurement": "TGI", "setting": "DU-145 prostate", "value": 3380, "unit": "nM"}, {"measurement": "GI50", "setting": "SK-MEL-5 melanoma", "value": 1690, "unit": "nM"}, {"measurement": "TGI", "setting": "SK-MEL-5 melanoma", "value": 3060, "unit": "nM"}, {"measurement": "GI50", "setting": "UACC-257 melanoma", "value": 1520, "unit": "nM"}, {"measurement": "TGI", "setting": "UACC-257 melanoma", "value": 3020, "unit": "nM"}, {"measurement": "GI50", "setting": "HOP-92 NSCLC", "value": 1100, "unit": "nM"}, {"measurement": "TGI", "setting": "HOP-92 NSCLC", "value": 2440, "unit": "nM"}, {"measurement": "GI50", "setting": "SN12C renal", "value": 1820, "unit": "nM"}, {"measurement": "TGI", "setting": "SN12C renal", "value": 3410, "unit": "nM"}]}
{"smiles": "Cn1cc(-c2nc(-c3c[nH]c4ccncc34)cs2)c2ccccc21", "values": [{"measurement": "GI50", "setting": "OVCAR-3 ovarian", "value": 1690, "unit": "nM"}, {"measurement": "TGI", "setting": "OVCAR-3 ovarian", "value": 3090, "unit": "nM"}, {"measurement": "GI50", "setting": "MDA-MB-231 breast", "value": 1560, "unit": "nM"}, {"measurement": "TGI", "setting": "MDA-MB-231 breast", "value": 3040, "unit": "nM"}, {"measurement": "GI50", "setting": "UO-31 renal", "value": 1380, "unit": "nM"}, {"measurement": "TGI", "setting": "UO-31 renal", "value": 2690, "unit": "nM"}, {"measurement": "GI50", "setting": "BT-549 breast", "value": 9000, "unit": "nM"}, {"measurement": "TGI", "setting": "BT-549 breast", "value": 35500, "unit": "nM"}, {"measurement": "GI50", "setting": "MALME-3M melanoma", "value": 1690, "unit": "nM"}, {"measurement": "TGI", "setting": "MALME-3M melanoma", "value": 3230, "unit": "nM"}, {"measurement": "GI50", "setting": "OVCAR-5 ovarian", "value": 1760, "unit": "nM"}, {"measurement": "TGI", "setting": "OVCAR-5 ovarian", "value": 3180, "unit": "nM"}, {"measurement": "GI50", "setting": "UACC-62 melanoma", "value": 1690, "unit": "nM"}, {"measurement": "TGI", "setting": "UACC-62 melanoma", "value": 3110, "unit": "nM"}, {"measurement": "GI50", "setting": "HS 578T breast", "value": 1930, "unit": "nM"}, {"measurement": "TGI", "setting": "HS 578T breast", "value": 4400, "unit": "nM"}, {"measurement": "GI50", "setting": "HCT-15 colon", "value": 1370, "unit": "nM"}, {"measurement": "TGI", "setting": "HCT-15 colon", "value": 2810, "unit": "nM"}, {"measurement": "GI50", "setting": "TK-10 renal", "value": 1970, "unit": "nM"}, {"measurement": "TGI", "setting": "TK-10 renal", "value": 3460, "unit": "nM"}, {"measurement": "GI50", "setting": "MDA-MB-435", "value": 1790, "unit": "nM"}, {"measurement": "TGI", "setting": "MDA-MB-435", "value": 3320, "unit": "nM"}, {"measurement": "GI50", "setting": "A498 renal", "value": 1860, "unit": "nM"}, {"measurement": "TGI", "setting": "A498 renal", "value": 3300, "unit": "nM"}, {"measurement": "GI50", "setting": "SK-OV-3 ovarian", "value": 1590, "unit": "nM"}, {"measurement": "TGI", "setting": "SK-OV-3 ovarian", "value": 3230, "unit": "nM"}, {"measurement": "GI50", "setting": "A549 NSCLC", "value": 1830, "unit": "nM"}, {"measurement": "TGI", "setting": "A549 NSCLC", "value": 3460, "unit": "nM"}, {"measurement": "GI50", "setting": "SF-295 CNS", "value": 1770, "unit": "nM"}, {"measurement": "TGI", "setting": "SF-295 CNS", "value": 3320, "unit": "nM"}, {"measurement": "GI50", "setting": "M14 melanoma", "value": 1740, "unit": "nM"}, {"measurement": "TGI", "setting": "M14 melanoma", "value": 3400, "unit": "nM"}, {"measurement": "GI50", "setting": "DU-145 prostate", "value": 1740, "unit": "nM"}, {"measurement": "TGI", "setting": "DU-145 prostate", "value": 3150, "unit": "nM"}, {"measurement": "GI50", "setting": "SF-268 CNS", "value": 1790, "unit": "nM"}, {"measurement": "TGI", "setting": "SF-268 CNS", "value": 3430, "unit": "nM"}, {"measurement": "GI50", "setting": "SF-539 CNS", "value": 1780, "unit": "nM"}, {"measurement": "TGI", "setting": "SF-539 CNS", "value": 3260, "unit": "nM"}, {"measurement": "GI50", "setting": "PC-3 prostate", "value": 1450, "unit": "nM"}, {"measurement": "TGI", "setting": "PC-3 prostate", "value": 2960, "unit": "nM"}, {"measurement": "GI50", "setting": "UACC-257 melanoma", "value": 1960, "unit": "nM"}, {"measurement": "TGI", "setting": "UACC-257 melanoma", "value": 3550, "unit": "nM"}, {"measurement": "GI50", "setting": "CAKI-1 renal", "value": 1480, "unit": "nM"}, {"measurement": "TGI", "setting": "CAKI-1 renal", "value": 2850, "unit": "nM"}, {"measurement": "GI50", "setting": "HCT-116 colon", "value": 1610, "unit": "nM"}, {"measurement": "TGI", "setting": "HCT-116 colon", "value": 3040, "unit": "nM"}, {"measurement": "GI50", "setting": "NCI/ADR-RES ovarian", "value": 1990, "unit": "nM"}, {"measurement": "TGI", "setting": "NCI/ADR-RES ovarian", "value": 4020, "unit": "nM"}, {"measurement": "GI50", "setting": "ACHN renal", "value": 1600, "unit": "nM"}, {"measurement": "TGI", "setting": "ACHN renal", "value": 2960, "unit": "nM"}, {"measurement": "GI50", "setting": "SK-MEL-2 melanoma", "value": 1800, "unit": "nM"}, {"measurement": "TGI", "setting": "SK-MEL-2 melanoma", "value": 3510, "unit": "nM"}, {"measurement": "GI50", "setting": "KM12 colon", "value": 1110, "unit": "nM"}, {"measurement": "TGI", "setting": "KM12 colon", "value": 2350, "unit": "nM"}, {"measurement": "GI50", "setting": "SN12C renal", "value": 1760, "unit": "nM"}, {"measurement": "TGI", "setting": "SN12C renal", "value": 3270, "unit": "nM"}, {"measurement": "GI50", "setting": "EKVX NSCLC", "value": 1640, "unit": "nM"}, {"measurement": "TGI", "setting": "EKVX NSCLC", "value": 3360, "unit": "nM"}, {"measurement": "GI50", "setting": "SK-MEL-28 melanoma", "value": 1710, "unit": "nM"}, {"measurement": "TGI", "setting": "SK-MEL-28 melanoma", "value": 3140, "unit": "nM"}, {"measurement": "GI50", "setting": "SNB-75 CNS", "value": 1290, "unit": "nM"}, {"measurement": "TGI", "setting": "SNB-75 CNS", "value": 2610, "unit": "nM"}]}
